These results are taken from patent US9517244B2, “Therapeutic combinations for use in neoplasia” (University of Florida Research Foundation, Inc., priority 2011, dated 2016).

Assay [1] has as its target APE1 (Homo sapiens, UniProt P27695). Briefly: in vitro APE1 activity assay with purified APE1 and 32P-labeled 63-mer F-DNA. The assay is classed as biochemical. From the text:
FIGS. 4A and 4B depict the screening of small molecules. FIG. 4A depicts an in vitro assay system to determine the effect of compounds on the blockage of APE1-activity using purified APE1 and ^32P-labeled 63-mer F-DNA. FIG. 4B is a gel depicting the effect of the small molecules on APE1 activity. […] Data are representative of duplicate experiments.
FIG. 5A depicts an in vitro assay protocol using purified APE1 protein. FIG. 5B is an image of a gel showing a dose-dependent effect of NSC-30049 on APE1 activity. […] FIG. 5C is a graph depicting the percent cleavage and the IC50 of NSC-30049 to block APE1 activity, showing that APE1 is blocked in a dose-dependent manner. Data is mean±SE of three different experiments.
To determine the effect of compounds on the blockage of APE1 activity, an in vitro assay system was developed using purified APE1 and ^32P-labeled 63-mer F-DNA (FIG. 4A). Several small molecules (NSC-9746, NSC-18468, NSC-2137, NAC-30049 and NSC-32895) were screened for their ability to inhibit APE1 activity in the in vitro assay (FIG. 4B).

For assay [2], the target named is DNA ligase I (Homo sapiens, UniProt P18858). The experiment in a line: DNA ligase I activity in vitro. The format is biochemical. Particulars: DNA ligase I 1 nM. The method, then:
Lanes 4-7 contained increasing concentrations of NSC-30049 (0.5, 1, 2.5, and 5 μM, respectively). The arrows indicate the positions of the 63-mer substrate and the products. […] Data are representative of three different experiments.

In assay [3] the test system is AsPC1. The experiment in a line: MTT assay, pancreatic cancer cell line. The format is cell-based, human. The following applies: Homo sapiens; AsPC1 (dFdC-resistant); single agent; 72 h; read-out: IC50. (In general: Formazan colour is commonly taken as a measure of viable cells.)
The subject of assay [4] is Mia-PaCa2. Briefly: MTT assay, pancreatic cancer cell line. The format is cell-based, human. The following applies: Homo sapiens, MIA PaCa-2; Mia-PaCa2 (dFdC-resistant); single agent; 72 h; read-out: IC50.
Assay [5] relates to colon cancer stem cells. Briefly: cell growth inhibition of colon cancer stem cells. The format is cell-based, human. Particulars: Homo sapiens, 72 h. The method, then:
(§1) Cells were treated with 1.25 μM of NSC-30049 and 1.25 μM of OPT either alone or in combination for 72 h. Data are mean±SD of triplicate experiments. […] Cells were treated with 1.25 μM of NSC-30049 and 1.25 μM of OPT either alone or in combination for 72 h. Fold change in gene expression values is shown as mean±SD of three experiments and are normalized to GAPDH gene expression.
(§2) The effect of administration of NSC-30049 in combination with oxaliplatin (OPT) was also examined in human parental cancer cells and colon cancer stem cells (FIG. 9A). Cells were treated with 1.25 μM of NSC-30049 and […] of OPT either alone or in combination for 72 h. Cell growth inhibition was assayed. Data presented are mean±SD of triplicate experiments.

The subject of assay [6] is human parental cancer cells. Briefly: cell growth inhibition of parental cancer cells. The format is cell-based. Particulars: Homo sapiens, 72 h. On the procedure:
as §1, §2

Assay [7] relates to CD133, Nanog, Oct4, Sox2 expression in colon cancer stem cells. The experiment in a line: qRT-PCR of self-renewal marker genes in colon cancer stem cells. The following applies: 1.25 μM NSC-30049 + 1.25 μM OPT, 72 h, compared to either alone. The assay is classed as cell-based, human. On the procedure: (§3) Cells were treated with 1.25 μM of NSC-30049 and 1.25 μM of OPT either alone or in combination for 72 h. Data are mean±SD of triplicate experiments. FIG. 9B depicts the inhibition in expression of self-renewal marker genes of colon cancer stem cells, qRT-PCR data of CD133+, Oct4, Sox2 and Nanog gene expression levels of parental cancer cells and colon cancer stem cells was obtained. Cells were treated with 1.25 μM of NSC-30049 and 1.25 μM of OPT either alone or in combination for 72 h. Fold change in gene expression values is shown as mean±SD of three experiments and are normalized to GAPDH gene expression.
(§4) Without being bound to a particular theory, the effect of administration of NSC-30049 in combination with oxaliplatin (OPT) on the expression of self-renewal marker genes of colon cancer stem cells was analyzed. Self-renewal marker genes are highly expressed in colon cancer stem cells compared to human parental cancer cells. qRT-PCR data of CD133+, Oct4, Sox2 and Nanog gene expression levels of parental cancer cells and colon cancer stem cells was obtained (FIG. 9B). Cells were treated with 1.25 μM of NSC-30049 and 1.25 μM of OPT either alone or in combination for 72 h. The fold change in gene expression values is shown as mean±SD of three experiments and were normalized to GAPDH gene expression. […]
Background: In qPCR the cycle at which signal appears reflects the starting amount.

Assay [8] concerns CD133, Nanog, Oct4, Sox2 expression in human parental cancer cells. The experiment in a line: qRT-PCR of self-renewal marker genes in parental cancer cells. The assay is classed as cell-based. The following applies: 1.25 μM NSC-30049 + 1.25 μM OPT, 72 h, compared to either alone. The method, then: as §3, §4
In assay [9] the test system is HCT-116 (MMR deficient) xenograft. The experiment in a line: xenograft model of colon cancer, tumor volume. Particulars: NSC-30049 2.5 mg/kg i.p. + temozolomide 20 mg/kg i.p., day 38. The format is in vivo. On the procedure:
(§5) FIG. 10A is a schematic representation of the experimental protocol. […] Data are the mean±SD of four to six animals in each group.
(§6) Xenograft models of colon cancer were used to test the effect of NSC-30049 as a chemopreventive agent when administered in combination with temozolomide. At day 0, the xenograft host was administered with cells from a colon cancer cell line (HCT-116, MMR deficient; HCT-116+ch3, MMR proficient). Thereafter, temozolomide (20 mg/kg body weight; intraperitoneal) and/or NSC-30049 (2.5 mg/kg body weight; intraperitoneal) were administered to the animals. Tumor growth was evaluated at day 38.

Assay [10] has as its system HCT-116+ch3 (MMR proficient) xenograft. The experiment in a line: xenograft model of colon cancer, tumor volume. The following applies: NSC-30049 2.5 mg/kg i.p. + temozolomide 20 mg/kg i.p., day 38. The assay is classed as in vivo. The method, then:
as §5, §6

[11] abbreviates: 1.25 μM NSC-30049 in combination with 1.25 μM oxaliplatin.

Chain of APE1 (P27695 whole entry): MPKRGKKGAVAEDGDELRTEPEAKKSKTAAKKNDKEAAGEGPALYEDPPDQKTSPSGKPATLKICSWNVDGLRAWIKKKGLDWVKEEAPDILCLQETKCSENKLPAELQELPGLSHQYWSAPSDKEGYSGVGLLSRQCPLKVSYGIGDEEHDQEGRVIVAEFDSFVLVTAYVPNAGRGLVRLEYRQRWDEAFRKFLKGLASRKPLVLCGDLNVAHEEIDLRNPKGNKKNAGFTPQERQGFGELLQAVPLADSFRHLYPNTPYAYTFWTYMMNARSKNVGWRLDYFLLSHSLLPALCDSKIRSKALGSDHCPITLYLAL
Chain of DNA ligase I (P18858 whole entry, species assumed): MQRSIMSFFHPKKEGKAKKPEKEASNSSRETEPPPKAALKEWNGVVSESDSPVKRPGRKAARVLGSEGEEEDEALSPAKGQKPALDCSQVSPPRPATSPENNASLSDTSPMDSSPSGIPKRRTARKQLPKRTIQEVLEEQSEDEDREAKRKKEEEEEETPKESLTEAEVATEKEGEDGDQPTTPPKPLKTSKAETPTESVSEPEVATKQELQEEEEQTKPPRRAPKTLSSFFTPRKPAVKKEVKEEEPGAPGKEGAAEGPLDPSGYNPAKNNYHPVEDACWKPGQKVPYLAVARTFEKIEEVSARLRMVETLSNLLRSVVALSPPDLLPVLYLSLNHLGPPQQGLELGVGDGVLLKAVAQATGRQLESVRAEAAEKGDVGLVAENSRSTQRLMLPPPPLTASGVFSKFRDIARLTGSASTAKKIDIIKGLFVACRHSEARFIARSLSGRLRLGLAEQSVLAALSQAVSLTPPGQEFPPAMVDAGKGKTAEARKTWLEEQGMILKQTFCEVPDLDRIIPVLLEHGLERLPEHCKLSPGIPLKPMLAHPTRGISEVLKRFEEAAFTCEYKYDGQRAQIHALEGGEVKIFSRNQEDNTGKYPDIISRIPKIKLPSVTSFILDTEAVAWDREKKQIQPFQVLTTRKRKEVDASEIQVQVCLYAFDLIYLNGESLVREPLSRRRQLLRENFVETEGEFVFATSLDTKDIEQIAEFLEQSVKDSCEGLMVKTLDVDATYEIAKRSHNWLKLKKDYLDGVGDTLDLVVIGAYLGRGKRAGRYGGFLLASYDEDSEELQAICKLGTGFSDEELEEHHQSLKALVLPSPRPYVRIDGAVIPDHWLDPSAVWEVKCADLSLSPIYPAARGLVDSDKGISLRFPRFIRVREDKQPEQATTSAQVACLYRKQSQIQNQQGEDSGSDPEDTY

By IC50 is commonly meant the concentration at which inhibition is half-maximal. As a reminder, the inhibition is the percentage by which the read-out fell short of the control. As to `ClCC=CC[N+]12CN3CN(CN(C3)C1)C2` [NSC-30049, 1-(4-Chloro-2-butenyl)-1λ˜5˜,3,5,7-tetraazatricyclo[3.3.1.1˜3,7˜]decane], the “inhibition of APE1 activity in screen” value in [1] (5, 10, 20 and 40 μM) is reported as “inhibit APE1 activity in the in vitro assay at all concentrations tested”. The IC50 in [1] (purified APE1, read-out: IC50 to block APE1 activity) was determined as 7.2 nM; in [3], 1880 ± 110 nM; in [4], 5120 ± 220 nM. Besides, the “effect on DNA ligase I activity” value in [2] was “did not affect DNA ligase I activity”. The inhibition at 1.25 µM in assay [5] (setting [11]) was about 80%; in assay [5] (alone, 1.25 μM), about 10%; in [6] (setting [11]), about 70%; in assay [6] (alone, 1.25 μM), about 20%. Besides, the “expression of CD133, Nanog, Oct4, and Sox2” value in [7] was “significantly inhibited the expression of CD133, Nanog, Oct4, and Sox2”; in assay [8], “inhibited the expression of CD133, Nanog, Oct4, and Sox2 in human parental cancer cells”. Moreover, the “inhibition of tumor growth (tumor volume)” value in assay [9] and in assay [10] was “synergistic effect on the inhibition of tumor growth” in each case.
